Results taken from the supplement of paper PMC10307832.

Legend:
Assay in all cases: relative viability (nuclei count vs DMSO), 5 days (fraction); higher = more cells survive
[1] = compound: C1COCCN1C2=NC(=NC3=C2OC4=C3C=CC=N4)C5=CC(=CC=C5)NC(=O)C6=CN=C(C=C6)N + C[C@]1(O)C[C@@H](c2nc(-c3ccc4ccc(-c5ccccc5)nc4c3)c3c(N)nccn32)C1 [Linsitinib] (partner 1 µM)
Method in brief: (§1)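 A single step with final 0.05% Triton X-100, 1% formaldehyde and 1 ug/ml Hoechst fixed the cells and stained nuclei 5 days after treatment. Lung cancer cell lines in 1536-well plates had been treated by pin tool the day after seeding with one drug alone or a fixed anchor-drug dose plus five library-drug doses (not always all listed) in √10 steps, and nuclei were counted on 4× images. Relative viability is the ratio of nuclei in treated wells to nuclei in vehicle wells, taken as the median of duplicate plates.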

SGI-1776 + Decitabine = compound: CN1CCC(CNc2ccc3ncc(-c4cccc(OC(F)(F)F)c4)n3n2)CC1 [SGI-1776] + Nc1ncn([C@H]2C[C@H](O)[C@@H](CO)O2)c(=O)n1 [Decitabine] (partner 2 µM)
Method in brief: as §1

SGI-1776 + Foretinib = compound: CN1CCC(CNc2ccc3ncc(-c4cccc(OC(F)(F)F)c4)n3n2)CC1 [SGI-1776] + COc1cc2c(Oc3ccc(NC(=O)C4(C(=O)Nc5ccc(F)cc5)CC4)cc3F)ccnc2cc1OCCCN1CCOCC1 [Foretinib] (partner 0.25 µM)
Method in brief: as §1

Entinostat + Alpelisib = compound: Nc1ccccc1NC(=O)c1ccc(CNC(=O)OCc2cccnc2)cc1 [Entinostat] + Cc1nc(NC(=O)N2CCC[C@H]2C(N)=O)sc1-c1ccnc(C(C)(C)C(F)(F)F)c1 [Alpelisib] (partner 2 µM)
Method in brief: as §1

| Cell Line | relative viability ([1]; first compound 0.02 µM) | relative viability ([1]; first compound 0.06325 µM) | relative viability ([1]; first compound 0.2 µM) | relative viability ([1]; first compound 0.6325 µM) | relative viability ([1]; first compound 2 µM) | relative viability (SGI-1776 + Decitabine; first compound 0.08 µM) | relative viability (SGI-1776 + Decitabine; first compound 0.8 µM) | relative viability (SGI-1776 + Decitabine; first compound 2.53 µM) | relative viability (SGI-1776 + Decitabine; first compound 8 µM) | relative viability (SGI-1776 + Foretinib; first compound 0.08 µM) | relative viability (SGI-1776 + Foretinib; first compound 0.8 µM) | relative viability (SGI-1776 + Foretinib; first compound 2.53 µM) | relative viability (SGI-1776 + Foretinib; first compound 8 µM) | relative viability (Entinostat + Alpelisib; first compound 0.02 µM) | relative viability (Entinostat + Alpelisib; first compound 0.06325 µM) | relative viability (Entinostat + Alpelisib; first compound 0.2 µM) | relative viability (Entinostat + Alpelisib; first compound 0.6325 µM) | relative viability (Entinostat + Alpelisib; first compound 2 µM) |
| --- | --- | --- | --- | --- | --- | --- | --- | --- | --- | --- | --- | --- | --- | --- | --- | --- | --- | --- |
| NCI-H838 | 0.977 | 1.08 | 0.933 | 0.78 | 0.371 | 0.46 | 0.45 | 0.435 | 0.437 | 1.08 | 1.05 | 1.05 | 0.669 | 1.03 | 1.15 | 1.13 | 0.72 | 0.301 |
| HARA | 1.15 | 1.04 | 1.02 | 0.783 | 0.361 | 0.574 | 0.72 | 0.529 | 0.448 | 1.04 | 0.946 | 0.718 | 0.913 | 0.819 | 0.861 | 0.658 | 0.582 | 0.484 |
| NCI-H23 | 0.6 | 0.576 | 0.499 | 0.534 | 0.497 | 0.326 | 0.323 | 0.35 | 0.305 | 0.969 | 0.932 | 0.781 | 0.333 | 0.773 | 0.666 | 0.82 | 0.674 | 0.364 |
| LOU-NH91 | 0.893 | 0.998 | 0.989 | 0.92 | 0.769 | 0.853 | 0.811 | 0.799 | 0.705 | 1.06 | 0.893 | 0.926 | 0.762 | 0.701 | 0.747 | 0.718 | 0.592 | 0.605 |
| LCLC-103H | 1.05 | 1.15 | 1.21 | 1.03 | 0.978 | 0.738 | 0.656 | 0.762 | 0.69 | 0.88 | 0.705 | 0.748 | 0.637 | 1.04 | 1.09 | 0.894 | 0.783 | 0.571 |
| SW 1573 | 0.75 | 0.743 | 0.824 | 0.756 | 0.544 | 0.598 | 0.459 | 0.483 | 0.299 | 0.949 | 0.846 | 0.846 | 0.791 | 0.672 | 0.665 | 1.04 | 0.819 | 0.83 |
| EKVX | 1.1 | 1.02 | 1.1 | 0.972 | 0.642 | 0.291 | 0.397 | 0.355 | 0.305 | 1.36 | 0.837 | 0.863 | 0.749 | 0.942 | 0.989 | 0.771 | 0.48 | 0.317 |
| IA-LM | 0.439 | 0.696 | 0.526 | 0.565 | 0.327 |  |  |  |  | 1.13 | 1.2 | 1.3 | 1.07 | 0.706 | 0.741 | 0.98 | 0.566 | 0.481 |
| HCC-827 | 0.924 | 0.929 | 0.968 | 1.01 | 0.988 | 0.32 | 0.391 | 0.411 | 0.295 | 1.04 | 1.13 | 1.09 | 0.647 | 0.836 | 0.848 | 0.607 | 0.532 | 0.359 |
| NCI-H661 | 0.533 | 0.645 | 0.645 | 0.421 | 0.386 | 0.572 | 0.606 | 0.501 | 0.471 | 1.03 | 1.04 | 1.07 | 1.03 | 0.733 | 0.735 | 0.68 | 0.856 | 0.683 |
| CAL-12T | 0.622 | 0.813 | 0.886 | 0.782 | 0.584 |  |  |  |  | 1.21 | 1.08 | 1.25 | 0.577 | 1.22 | 1.18 | 1.41 | 1.08 | 0.962 |
| NCI-H2342 |  |  |  |  |  | 0.776 | 0.707 | 0.658 | 0.712 | 1.22 | 1.07 | 1.04 | 1.04 |  |  |  |  |  |
| SW 900 |  |  |  |  |  | 0.368 | 0.412 | 0.49 | 0.456 | 1.05 | 1.12 | 0.9 | 0.817 |  |  |  |  |  |
| LC-2-ad | 0.836 | 0.866 | 0.837 | 0.826 | 0.589 | 0.806 | 0.811 | 0.737 | 0.779 | 0.999 | 0.922 | 0.934 | 0.685 | 0.864 | 0.777 | 0.761 | 0.348 | 0.187 |
| EPLC-272H | 1.27 | 1.07 | 1.12 | 1.01 | 0.721 | 0.371 | 0.365 | 0.395 | 0.322 | 0.82 | 0.66 | 0.768 | 0.528 | 0.955 | 0.998 | 0.795 | 0.526 | 0.38 |
| A-427 | 1.08 | 1.14 | 1.08 | 0.901 | 0.673 | 0.601 | 0.587 | 0.539 | 0.521 | 1.15 | 1.17 | 0.972 | 0.983 | 1.01 | 1.1 | 1.05 | 0.943 | 0.845 |
| NCI-H650 | 0.876 | 0.876 | 0.857 | 0.837 | 0.659 | 0.337 | 0.32 | 0.341 | 0.313 | 1.09 | 1.03 | 1.02 | 0.936 | 1.18 | 1.13 | 1.03 | 0.763 | 0.339 |
| NCI-H1993 | 0.768 | 0.627 | 0.689 | 0.74 | 0.667 | 0.56 | 0.664 | 0.522 | 0.503 | 0.819 | 0.761 | 0.688 | 0.695 | 0.674 | 0.704 | 0.733 | 0.695 | 0.728 |
| NCI-H358 | 0.671 | 0.827 | 0.674 | 0.721 | 0.584 | 0.223 | 0.245 | 0.191 | 0.133 | 0.698 | 0.553 | 0.467 | 0.198 | 0.807 | 0.962 | 0.965 | 0.551 | 0.284 |
